# Experimental data from ChEMBL document CHEMBL1142021, “Aglycon specificity profiling of alpha-glucosidases using synthetic probes” (Bioorg Med Chem Lett, 2005).
# Key:
# Homo sapiens = species: Homo sapiens; experiment: Inhibition of alpha-Galactosidase at 5 umol/mL
# [1] = biological target: T1, Mannosyl-oligosaccharide glucosidase (Homo sapiens) (UniProt Q13724); experiment: Inhibition of Glucosidase 1 (of Endoplasmic reticulum processing alpha-glucosidase) at 2 umol/mL
# T1 sequence (whole entry): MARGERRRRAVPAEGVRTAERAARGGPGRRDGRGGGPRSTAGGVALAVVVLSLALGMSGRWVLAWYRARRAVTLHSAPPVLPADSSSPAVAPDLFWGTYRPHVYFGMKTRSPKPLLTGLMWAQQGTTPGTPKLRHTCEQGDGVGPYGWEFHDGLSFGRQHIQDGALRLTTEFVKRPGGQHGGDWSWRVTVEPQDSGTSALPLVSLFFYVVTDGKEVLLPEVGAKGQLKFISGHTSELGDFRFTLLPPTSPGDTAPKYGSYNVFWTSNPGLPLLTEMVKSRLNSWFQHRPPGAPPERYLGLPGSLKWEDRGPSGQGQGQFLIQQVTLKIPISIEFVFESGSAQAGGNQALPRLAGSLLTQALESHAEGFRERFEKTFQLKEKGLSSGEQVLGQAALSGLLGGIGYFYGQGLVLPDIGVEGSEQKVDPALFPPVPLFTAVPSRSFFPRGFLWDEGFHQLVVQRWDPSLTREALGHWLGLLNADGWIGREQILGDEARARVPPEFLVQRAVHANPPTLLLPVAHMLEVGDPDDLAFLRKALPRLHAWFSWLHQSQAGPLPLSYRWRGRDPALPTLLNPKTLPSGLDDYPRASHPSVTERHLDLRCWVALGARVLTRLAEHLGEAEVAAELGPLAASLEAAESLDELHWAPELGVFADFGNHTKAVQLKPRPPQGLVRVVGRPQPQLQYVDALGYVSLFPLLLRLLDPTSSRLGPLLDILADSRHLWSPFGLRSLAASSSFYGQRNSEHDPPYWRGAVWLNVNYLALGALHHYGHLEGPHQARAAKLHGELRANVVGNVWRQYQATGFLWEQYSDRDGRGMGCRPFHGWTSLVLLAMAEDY
# [2] = biological target: T2, Cytosolic beta-glucosidase (Homo sapiens) (UniProt Q9H227); experiment: Inhibition of beta-Glucosidase at 2 umol/mL
# T2 sequence (whole entry): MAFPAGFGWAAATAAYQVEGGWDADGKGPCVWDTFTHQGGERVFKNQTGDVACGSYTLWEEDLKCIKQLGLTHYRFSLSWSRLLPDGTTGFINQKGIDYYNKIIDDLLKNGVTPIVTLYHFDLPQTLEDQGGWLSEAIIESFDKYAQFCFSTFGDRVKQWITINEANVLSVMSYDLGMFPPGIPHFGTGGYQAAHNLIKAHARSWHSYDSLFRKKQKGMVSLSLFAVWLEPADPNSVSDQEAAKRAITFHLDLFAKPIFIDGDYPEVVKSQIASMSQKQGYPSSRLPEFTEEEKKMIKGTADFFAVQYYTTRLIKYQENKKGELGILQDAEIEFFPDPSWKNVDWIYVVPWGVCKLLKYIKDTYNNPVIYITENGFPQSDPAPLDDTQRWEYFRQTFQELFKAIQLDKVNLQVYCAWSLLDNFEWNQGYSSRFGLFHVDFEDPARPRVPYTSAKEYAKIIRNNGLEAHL
# [3] = Inhibition of Flint corn glucosidase (of family 31 alpha-glucosidase) by compound with concentration 1 umol/mI
# [4] = biological target: T3, Alpha-glucosidase (Oryza sativa Japonica Group) (UniProt Q9LGC6); experiment: Inhibition of Rice glucosidase (of family 31 alpha-glucosidase) at 1 umol/mL
# T3 sequence (whole entry): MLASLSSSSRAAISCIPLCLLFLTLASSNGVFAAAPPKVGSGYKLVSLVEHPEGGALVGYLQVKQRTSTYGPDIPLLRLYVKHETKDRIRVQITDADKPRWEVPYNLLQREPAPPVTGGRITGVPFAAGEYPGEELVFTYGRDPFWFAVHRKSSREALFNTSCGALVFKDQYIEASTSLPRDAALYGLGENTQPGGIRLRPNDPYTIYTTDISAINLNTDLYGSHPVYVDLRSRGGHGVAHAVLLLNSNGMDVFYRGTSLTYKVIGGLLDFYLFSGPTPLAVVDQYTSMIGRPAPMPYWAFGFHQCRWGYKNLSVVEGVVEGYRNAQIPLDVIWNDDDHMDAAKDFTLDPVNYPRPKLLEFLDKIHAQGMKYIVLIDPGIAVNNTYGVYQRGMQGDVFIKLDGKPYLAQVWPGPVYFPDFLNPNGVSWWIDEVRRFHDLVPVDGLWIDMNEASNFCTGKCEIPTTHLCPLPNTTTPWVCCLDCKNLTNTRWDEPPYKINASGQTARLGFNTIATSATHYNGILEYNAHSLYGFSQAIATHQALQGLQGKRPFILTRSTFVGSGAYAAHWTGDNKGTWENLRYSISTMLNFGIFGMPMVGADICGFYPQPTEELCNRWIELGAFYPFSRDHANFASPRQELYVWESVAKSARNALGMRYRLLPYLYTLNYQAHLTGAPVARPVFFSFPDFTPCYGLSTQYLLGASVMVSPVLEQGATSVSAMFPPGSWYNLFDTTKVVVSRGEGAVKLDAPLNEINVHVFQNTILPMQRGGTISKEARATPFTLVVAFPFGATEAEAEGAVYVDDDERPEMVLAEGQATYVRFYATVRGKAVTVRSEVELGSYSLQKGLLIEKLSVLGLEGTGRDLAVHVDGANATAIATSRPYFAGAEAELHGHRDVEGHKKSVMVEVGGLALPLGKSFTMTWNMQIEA
# [5] = biological target: Alpha-glucosidase (Beta vulgaris) (UniProt O04931); experiment: Inhibition of Sugar beet glucosidase (of family 31 alpha-glucosidase) at 1 umol/mL
# Chain of Alpha-glucosidase (Beta vulgaris) (O04931 whole entry): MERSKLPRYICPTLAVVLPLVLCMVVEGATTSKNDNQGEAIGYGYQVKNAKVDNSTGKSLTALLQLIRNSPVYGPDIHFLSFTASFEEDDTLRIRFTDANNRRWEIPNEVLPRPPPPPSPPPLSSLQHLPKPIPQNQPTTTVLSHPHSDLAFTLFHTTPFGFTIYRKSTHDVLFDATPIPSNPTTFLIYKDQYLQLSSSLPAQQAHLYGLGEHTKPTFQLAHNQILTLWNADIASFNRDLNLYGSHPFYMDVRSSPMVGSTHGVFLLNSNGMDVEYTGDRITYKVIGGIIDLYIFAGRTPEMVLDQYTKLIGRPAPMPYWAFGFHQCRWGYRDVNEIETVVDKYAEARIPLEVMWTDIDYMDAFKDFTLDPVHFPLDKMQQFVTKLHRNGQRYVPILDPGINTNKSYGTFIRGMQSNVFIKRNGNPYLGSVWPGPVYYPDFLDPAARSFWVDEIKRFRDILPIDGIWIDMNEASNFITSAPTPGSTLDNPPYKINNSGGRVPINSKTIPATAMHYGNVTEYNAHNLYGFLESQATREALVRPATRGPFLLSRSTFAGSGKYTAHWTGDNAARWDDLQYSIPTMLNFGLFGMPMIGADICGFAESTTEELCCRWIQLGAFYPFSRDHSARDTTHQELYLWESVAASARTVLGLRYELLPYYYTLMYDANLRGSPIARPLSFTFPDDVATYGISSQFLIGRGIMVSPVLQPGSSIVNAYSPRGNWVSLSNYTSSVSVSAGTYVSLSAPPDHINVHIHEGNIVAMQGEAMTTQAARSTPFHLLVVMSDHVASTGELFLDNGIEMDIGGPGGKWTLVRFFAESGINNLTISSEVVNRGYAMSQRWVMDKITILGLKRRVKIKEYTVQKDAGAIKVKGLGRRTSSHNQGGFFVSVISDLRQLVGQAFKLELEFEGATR
Structure (SMILES),inhibition (Homo sapiens),inhibition [1],inhibition [2],inhibition [3],inhibition [4],inhibition ([5]; Beta vulgaris subsp. vulgaris),inhibition [5]
O=C(CO)NCC1OC(CO)C(O)C(O)C1O (stereo unspecified),< 1%,< 1%,< 1%,29.1%,10.7%,6.9%,–
CC(=O)NCC1OC(CO)C(O)C(O)C1O (stereo unspecified),< 1%,< 1%,< 1%,31%,21.8%,8.8%,–
CC(C)(C)C(=O)NCC1OC(CO)C(O)C(O)C1O (stereo unspecified),< 1%,< 1%,< 1%,5.6%,3.8%,3.2%,–
O=C(NCC1OC(CO)C(O)C(O)C1O)c1ccccc1 (stereo unspecified),< 1%,–,–,49.2%,16%,–,9.8%
O=C(CCO)NCC1OC(CO)C(O)C(O)C1O (stereo unspecified),< 1%,< 1%,< 1%,14.1%,8.5%,1.7%,–
O=C(CCCO)NCC1OC(CO)C(O)C(O)C1O (stereo unspecified),< 1%,< 1%,< 1%,18.5%,7.6%,3.6%,–
O=C(CCCCCO)NCC1OC(CO)C(O)C(O)C1O (stereo unspecified),< 1%,< 1%,< 1%,44.6%,26%,11.9%,–
O=C(CCCCO)NCC1OC(CO)C(O)C(O)C1O (stereo unspecified),< 1%,< 1%,< 1%,37%,18.3%,3.1%,–
